From US10774121B2, “Methods and compositions for treating neurodegenerative disorders and Alzheimer's Disease and improving normal memory” (The Regents of the University of California, priority 2006, dated 2020)
Entries after “also recorded” stand apart in the source; their conditions may differ.

Assays:
Aβ production = assay: ELISA of Aβ produced in β-APP-only:PS-1-only co-culture extracts; format: cell-based, mouse; conditions: synthetic peptides 0-3 μM added at the time of the co-culture
Description: Co-cultures of β-APP-only and PS-1-only cells were carried out in the presence and absence of Peptide 1-80 (0-3 μM). ^35S-GTPγS assays were carried out on extracts as a measure of G-protein activation. The Aβ produced in these co-culture extracts was determined by ELISA.
ES-derived mouse cells (PS-1^−/−; PS-2^−/−) that expressed only small amounts of endogenous β-APP but no PS, were transiently transfected with cDNA for human β-APP to produce cells expressing excess human β-APP over mouse β-APP, and no PS-1 or PS-2 (β-APP-only cells). Embryonic (E18) mouse primary fibroblasts derived from β-APP-null mice, expressing only small amounts of endogenous PS-1 and PS-2, were transfected with cDNAs for human PS-1 to produce cells expressing excess human over mouse PS-1 but no β-APP (PS-1-only cells). The minigenes were co-transfected with PS-1 in the PS-only APP−/− fibroblasts to inhibit the endogenous mouse Gα under investigation in those cells. PS−/− ES cells were separately transfected with human β-APP cDNA (β-APP only cells) and the two types of cells were co-cultured for 24 hours. Cells were harvested and detergent-buffer extracts of the co-cultures were prepared. Determination of [^35S]GTPγS incorporation in these cultures was carried out in the presence and absence of each minigene: Aliquots each containing 100 μg total protein were reacted with ^35S-GTPγS and immunoprecipitation of each ^35S-GTPγS-treated extract was carried out with antibodies directed to the particular Gα under investigation. Specificity of binding of a particular Gα to PS-1 was established by blocking of GTPγS incorporation in the presence of the specific minigene inhibitor.
Co-culture of β-APP-only with PS-1-only cells was carried out as described above.
ELISA for the production of Aβ1-40 was carried out using sandwich ELISA kits (Biosource).

Gαs = biological target: T1, Gαs (Rattus norvegicus, UniProt P63095); assay: Stimulation of 35S-GTPγS binding to Gs by PS-1 cytoplasmic peptides in rat hippocampal membrane preparations; format: biochemical; conditions: peptides 200 μM, rat hippocampal membranes
T1 construct: tissue Applied Cell Science, Rockville, Md; host or cells: rat hippocampal membranes, solubilized in CHAPS buffer
Description: (§1) The autonomous activation of G-proteins Gαo, Gαq and Gαs by oligopeptides corresponding to cytoplasmic loops 1, 2, 3 and the COOH tail of human PS-1 in the 7-TM PS model were examined. The peptides were individually tested for their ability to stimulate ^35S-GTPγS binding to each G-protein in rat hippocampal membrane preparations.
(§2) Rat hippocampal membranes (Applied Cell Science, Rockville, Md.) were solubilized in CHAPs buffer.
(§3) Peptides (200 μM) were incubated without pre-treatment with solubilized rat hippocampal membranes (50 μg) in the ^35S reaction mixture. Accumulation of γ-S GTP the ^35S-GTPγS was determined after immunoprecipitation with the specific anti-G Ab.

Gαo [1] = biological target: T2, Gαo (Rattus norvegicus, UniProt P59215); assay: Stimulation of 35S-GTPγS binding to Go by PS-1 cytoplasmic peptides in rat hippocampal membrane preparations; format: biochemical; conditions: peptides 200 μM; for stimulation of 35S-GTPγS binding to Go: rat hippocampal membranes
T2 construct: tissue Applied Cell Science, Rockville, Md; host or cells: rat hippocampal membranes, solubilized in CHAPS buffer
Description: To provide evidence that the GoA binding observed in FIG. 5A was directly to PS-1, and not to a co-immunoprecipitated, PS-associated protein the autonomous activation of Go by synthetic peptide fragments corresponding to cytoplasmic loops 1, 2, 3 and the carboxyl tail of PS-1 (in the 7-TM PS model) were investigated (see FIGS. 20B and C and Table 1). The peptides were individually tested for their ability to stimulate ^35S-GTPγS binding to Go in rat hippocampal membrane preparations.
as §1, §2, §3

Gαq = biological target: T3, Gαq (Rattus norvegicus, UniProt P82471); assay: Stimulation of 35S-GTPγS binding to Gq by PS-1 cytoplasmic peptides in rat hippocampal membrane preparations; format: biochemical; conditions: peptides 200 μM, rat hippocampal membranes
T3 sequence (P82471 1-359): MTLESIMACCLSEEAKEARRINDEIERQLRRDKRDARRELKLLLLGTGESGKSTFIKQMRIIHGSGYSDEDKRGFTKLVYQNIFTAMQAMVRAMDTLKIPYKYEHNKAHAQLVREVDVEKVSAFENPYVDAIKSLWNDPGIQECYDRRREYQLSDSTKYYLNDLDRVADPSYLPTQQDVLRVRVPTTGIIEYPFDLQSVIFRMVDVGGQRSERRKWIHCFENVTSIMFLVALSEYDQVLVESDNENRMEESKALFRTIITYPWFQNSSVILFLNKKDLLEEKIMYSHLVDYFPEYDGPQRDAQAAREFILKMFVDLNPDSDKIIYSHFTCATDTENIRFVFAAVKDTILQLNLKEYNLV
Description: as §1, §2, §3

[2] = test system: protein tyrosine kinase activity; assay: Protein tyrosine kinase ELISA on extracts of β-APP-transfected ES double-null cells mixed with PS-1-transfected DAMI cells; format: cell-based; conditions: 25 μg protein added, 0-20 min after mixing
Description: DAMI:ES cells: Equal numbers (0.5×10^6/ml) of β-APP 695 (Selkoe and Podlisny, 2002)-transfected ES double-null cells and PS-1 transfected DAMI cells were co-cultured at 37° C. for various times between 0-20 mins.
At several times between 0 and 20 min after mixing, an aliquot of each cell mixture was rapidly centrifuged, the culture medium was removed, and the cell pellet was suspended in 200 μl of extraction buffer (50 mM Tris, pH 8.0/150 mM NaCl/0.5% Nonidet-P40) containing protease inhibitors (1 mM 4-(2-aminoethyl) benzene sulfonyl fluoride hydrochloride (AEBSF)/1 μg/ml antipain/0.1 μg/ml pepstatin A/0.1 μg/ml leupeptin) and the phosphatase inhibitor sodium orthovanadate (0.1 mM). The mixture was sonicated with three bursts of 20 sec duration and then centrifuged. These extract supernatants were then used for Western blot and ELISA analyses as described below.
ELISAs Protein tyrosine kinase activity was measured by an Enzyme Linked Immunosorbent Assay (ELISA) using a tyrosine kinase assay kit (Upstate Biotechnology). A biotinylated substrate peptide containing tandem repeats of Poly (Glu4-Tyr) was incubated with supernatants of extracts of transfected cells mixed for different times ([…]) in the presence of non-radioactive ATP and a Mn^2+/Mg^2+ co-factor cocktail according to the manufacturer's protocols. A phosphotyrosine specific mouse monoclonal antibody (4G10) conjugated to horseradish peroxidase was used to detect the phosphorylated substrate by ELISA.
ES double-null cells transfected with β-APP were mixed with DAMI cells transfected with PS-1, and were co-cultured for various times between 0-20 min, using cell densities that ensured cell-cell contact. ELISA assays were then carried out on cell extracts to measure protein tyrosine kinase activity. […]

Gαo [3] = assay: 35S-GTPγS incorporation after addition of β-APPs to cell cultures, immunoprecipitation with Gαo antibodies; format: cell-based, mouse
Description: In addition, water-soluble β-APP ectodomain itself (B-APPs), when added to cultures of PS-1-only cells, could also activate G-proteins in a dose-dependent manner. β-APPs was partially purified from conditioned media of baculovirus cultures over-expressing human β-APP. The final product (FIG. 18b, lane 1) had, in addition to β-APP, three major contaminating bands at 81 kDa, 55 kDa and 31 kDa that co-purified with the β-APP ectodomain. This partially purified β-APPs preparation was added in increasing amounts to PS-1-only APP^−/− fibroblasts. After 15 mins the cells from each well were harvested in extraction buffer, and detergent extracts (each containing 100 μg protein) were treated with ^35S-GTPγS. Activation of Gαo was assayed after immunoprecipitation of the activated ^35S-GTPγS-Gαo with the Gαo-specific antibodies. […] Furthermore, when partially purified β-APPs was added to untransfected ES (PS^−/−) cells, no increase in G-protein activation was observed by ^35S-GTPγS assays (FIG. 18A, curve 5), further implicating PS as a receptor for the β-APP ligand in the Gαo activation.
To confirm that it was indeed the β-APPs in the partially purified β-APPs preparation that was the ligand responsible for G-protein activation, and not one of the contaminants, β-APPs was removed from the preparation by treatment with MAb 348 to β-APP (see FIG. 18C, lane 2). This β-APPs-depleted solution at the same concentrations used for the non-depleted preparation, was added to the PS-1-only cells, which were then treated exactly as described above. […] In contrast, the β-APPs preparation similarly treated with an irrelevant IgG when added to PS-1-only cells, gave results that resembled those obtained with the untreated samples (FIG. 18A, curve 2).
(§4) ^35S-GTPγS Assays: Extract (100 μg of total protein) was mixed with an equal volume of GTPγS Buffer B (50 mM HEPES/NaOH pH 7.4, 40 μM GDP, 50 mM MgCl2, 100 mM NaCl) and reacted with 50 nM ^35S-GTPγS (1250 Ci/mmol, Perkin Elmer, Waltham, Mass.) for 60 min at RT. The reaction was stopped with 10× Stopping buffer (100 mM Tris-HCl, pH 8, 25 mM MgCl2, 100 mM NaCl, 20 mM GTP) followed by immunoprecipitation of the ^35S-GTPγS-Gαo complex with Ab against a particular Gα. The Ab-protein complex was absorbed to Protein A/G agarose for 90 min at RT and washed. The agarose beads were suspended in scintillation fluid (CytoScint, ICN) (5 ml) and counted in a Beckman Coulter LS 6000 SC scintillation counter for 3 min.

G-protein Go = assay: 35S-GTPγS incorporation after addition of β-APPs to solubilized rat hippocampal membranes; format: biochemical
Description: Because the results so far described were obtained using only cultured cells transfected with human PS, binding of the endogenous rat PS proteins with rat Gαo present in rat hippocampal membranes was examined. […]
as §4, §2

T1 sequence (P63095 whole entry): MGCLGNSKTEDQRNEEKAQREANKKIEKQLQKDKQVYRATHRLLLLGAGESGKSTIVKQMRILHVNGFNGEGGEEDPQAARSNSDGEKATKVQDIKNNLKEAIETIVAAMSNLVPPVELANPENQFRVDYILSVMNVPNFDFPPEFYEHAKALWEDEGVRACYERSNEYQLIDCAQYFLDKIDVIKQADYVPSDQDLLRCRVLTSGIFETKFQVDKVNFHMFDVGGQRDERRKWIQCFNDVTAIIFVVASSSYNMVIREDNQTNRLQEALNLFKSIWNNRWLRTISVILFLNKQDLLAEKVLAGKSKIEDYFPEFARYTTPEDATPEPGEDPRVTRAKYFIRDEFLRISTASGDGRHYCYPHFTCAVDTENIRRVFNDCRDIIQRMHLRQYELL
T2 sequence (P59215 whole entry): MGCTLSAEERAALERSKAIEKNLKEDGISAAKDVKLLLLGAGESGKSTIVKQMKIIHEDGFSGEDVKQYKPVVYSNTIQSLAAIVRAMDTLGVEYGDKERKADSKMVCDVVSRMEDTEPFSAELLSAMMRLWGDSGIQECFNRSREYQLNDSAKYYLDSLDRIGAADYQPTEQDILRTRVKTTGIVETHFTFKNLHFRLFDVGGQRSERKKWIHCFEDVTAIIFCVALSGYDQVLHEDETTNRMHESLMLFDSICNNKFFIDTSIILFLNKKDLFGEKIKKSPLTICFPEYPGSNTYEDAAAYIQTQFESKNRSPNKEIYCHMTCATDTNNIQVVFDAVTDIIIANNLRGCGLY

DEEEDEEL [Peptide 8, 8-mer of the PS-1 N-terminal domain]
cell-cell interaction and Aβ production, ELISA (Aβ production): inhibits

DEEEDEELTLKYGAK [Peptide 7, 15-mer of the PS-1 N-terminal domain]
cell-cell interaction and Aβ production, ELISA (Aβ production): inhibits

KSVSFYTRKDGQLIYT [ic1(1-16), PS-1 cytoplasmic loop 1 peptide]
stimulation of 35S-GTPγS binding to Gs (Gαs): not

KYLPE [ic3, PS-1 cytoplasmic loop 3 peptide]
stimulation of 35S-GTPγS binding to Go (Gαo [1]): robust stimulation
increase in activation of 35S-GTPγS binding over samples without peptide (Gαo [1]; rat membranes): 200%
stimulation of 35S-GTPγS binding to Gq (Gαq): robust stimulation
stimulation of 35S-GTPγS binding to Gs (Gαs): only background stimulation

N-terminal domain of PS-1 fused to FLAG: fusion protein with FLAG attached at the N-terminus of the PS-1 N-terminal domain, grown in DH5α bacteria
transient increase in protein tyrosine kinase activity after cell mixing [2]: specifically inhibited; also recorded: none of the increases
transient increase in protein tyrosine kinase activity after cell mixing ([2]; listed as FLAG reporter fused to the N-terminal domain of PS-1): no increase

PFTEDTETVGQRALHS [ic1(17-32), PS-1 cytoplasmic loop 1 peptide]
stimulation of 35S-GTPγS binding to Gs (Gαs): induced stimulation

RRSLGHPEPLSNGRP [Peptide 4, 15-mer of the PS-1 N-terminal domain]
cell-cell interaction and Aβ production, ELISA (Aβ production): inhibits

TDYLVQPFMDQLAFHQFYI [C(21-39), remaining 19 amino acids of the PS-1 cytoplasmic C-terminal tail]
stimulation of 35S-GTPγS binding to Go (Gαo [1]; listed as COOH-terminal peptide corresponding to residues 21-39): failed to activate; also recorded: no detectable Go activation
stimulation of 35S-GTPγS binding to Gq (Gαq): robust stimulation
stimulation of 35S-GTPγS binding to Gs (Gαs): induced stimulation

VFKTYNVAVD [ic2, PS-1 cytoplasmic loop 2 peptide]
stimulation of 35S-GTPγS binding to Go (Gαo [1]): only background stimulation
stimulation of 35S-GTPγS binding to Gq (Gαq): only background stimulation
stimulation of 35S-GTPγS binding to Gs (Gαs): only background stimulation

β-APPs: water-soluble β-APP ectodomain, baculovirus-derived, purified or partially purified
35S-GTPγS incorporation (Gαo [3]; PS-1-only APP-/- fibroblast cultures, increasing β-APPs, 15 mins): increased ^35S-GTPgS incorporation in a dose-dependent manner
maximum increase in incorporation of 35S-GTPγS (Gαo [3]; PS-1-only APP-/- fibroblasts, 120 pM β-APPs): over 500%
35S-GTPγS incorporation (Gαo [3]; untransfected APP-/- fibroblasts expressing only endogenous PS): modest G-protein activation; also recorded: only modest increases
35S-GTPγS incorporation (Gαo [3]; untransfected ES (PS-/-) cells): no increase; also recorded: no significant increases
transient increase in protein tyrosine kinase activity after cell mixing [2]: specifically inhibited; also recorded: no increase; also recorded: none of the increases
35S-GTPγS incorporation (G-protein Go; PS-depleted rat membranes (pre-treated with polyclonal Ab to PS-1 and PS-2)): did not occur; also recorded: no increase
incorporation of 35S-GTPγS greater than untreated samples (G-protein Go; rat hippocampal membranes, 80 pM β-APPs): 100%
increase in G-protein Go activation (G-protein Go; rat hippocampal membranes, 400 pM β-APPs): greater than 600%
35S-GTPγS incorporation (G-protein Go; solubilized rat hippocampal membranes (100 μg), 0-400 pM β-APPs, 15 min): increased ^35S-GTPgS incorporation in a dose-dependent manner
